Patent US5100913A, “Novel sulfonylphenyl-β-D-thioxylosides, their method of preparation and their use in therapeutics” (Fournier Industrie et Sante, priority 1990, dated 1992)

These compounds were tested on venous thrombosis (assay: antithrombotic activity, venous thrombosis: venous stasis under hypercoagulation (Wessler), thrombus removed and weighed). Conditions: Rattus norvegicus, oral, suspension in PEG 400, thrombosis induced 4 hours after treatment.
Assay type: in vivo, male Wistar rats
Protocol: A venous stasis under hypercoagulation is produced according to the technique described by WESSLER et al. (J. Applied Physiol. 1959, p. 943-946). As in the technique described by J. HAUPMAN et al. (Thrombosis and Haemostasis 43(2), 1980, p. 118), the hypercoagulant used is a solution of activated factor X (Xa) supplied by Flow Laboratories (71 Knat per 12.5 ml of isotonic solution).
The study is performed on unfasted male Wistar rats weighing 250 to 280 g, divided into groups of 10 animals each. The test products are administered orally as a suspension in PEG 400. A thrombosis is induced 4 hours after this treatment and the thrombus formed is removed and weighed.
The results obtained at a dose of 3 mg/kg, administered orally, have been collated in Table I. The results obtained with the known products of the afore-mentioned prior art have also been collated in this Table.
For `CC(=O)O[C@@H]1[C@@H](OC(C)=O)[C@H](OC(C)=O)CS[C@H]1Oc1ccc(S(=O)(=O)N(C)C)cc1` [Example 19, 4-(N,N-dimethylsulfonamidyl)phenyl 2,3,4-tri-O-acetyl-5-thio-β-D-xylpyranoside], the inhibition in vivo at 3 mg/kg was 23%.
`CS(=O)(=O)c1cccc(S[C@@H]2SC[C@@H](O)[C@H](O)[C@H]2O)c1` [Example 12] showed an inhibition in vivo at 3 mg/kg of 43%.
Work on `CC(=O)O[C@@H]1[C@@H](OC(C)=O)[C@H](Sc2ccc(S(=O)(=O)c3ccccc3)cc2)SC[C@H]1OC(C)=O` [Example 1, 4-(phenylsulfonyl)phenyl 2,3,4-tri-O-acetyl-1,5-dithio-β-D-xylopyranoside] yielded an inhibition in vivo at 3 mg/kg of 20%.
`O=S(=O)(c1ccc(S[C@@H]2SC[C@@H](O)[C@H](O)[C@H]2O)cc1)N1CCCCC1` [Example 22, 4-(N-(piperidin-1-yl)sulfonamidyl)phenyl 1,5-dithio-β-D-xylpyranoside] gave an inhibition in vivo at 3 mg/kg of 47%.
For `O=S(=O)(c1ccc(F)cc1)c1ccc(S[C@@H]2SC[C@@H](O)[C@H](O)[C@H]2O)cc1` [Example 14, 4-[(4-fluorophenyl)sulfonyl]phenyl 1,5-dithio-β-D-xylpyranoside], the inhibition in vivo at 3 mg/kg was 61%.
For `CCS(=O)(=O)c1ccc(S[C@@H]2SC[C@@H](O)[C@H](O)[C@H]2O)cc1` [Example 10, 4-(ethylsulfonyl)phenyl 1,5dithio-β-D-xylopyranoside], the inhibition in vivo at 3 mg/kg was 31%.
Compound `O=S(=O)(c1ccccc1)c1ccc(S[C@@H]2SC[C@@H](O)[C@H](O)[C@H]2O)cc1` [Example 2, 4-(phenylsulfonyl)phenyl 1,5-dithio-β-D-xylopyranoside] has an inhibition in vivo at 3 mg/kg of 49%.
`CCS(=O)(=O)c1ccc(S[C@@H]2SC[C@@H](OC(C)=O)[C@H](OC(C)=O)[C@H]2OC(C)=O)cc1` [Example 9, 4-(ethylsulfonyl)phenyl 2,3,4-tri-O-acetyl-1,5-dithio-β-D-xylpyranoside] showed an inhibition in vivo at 3 mg/kg of 31%.
`CC(=O)O[C@@H]1[C@@H](OC(C)=O)[C@H](Sc2ccccc2S(C)(=O)=O)SC[C@H]1OC(C)=O` [Example 3, 2-(methylsulfonyl)phenyl 2,3,4-tri-O-acetyl-1,5-dithio-β-D-xylopyranoside] was tested, and the inhibition in vivo at 3 mg/kg was 29%.
`N#Cc1ccc(S(=O)(=O)c2ccc(S[C@@H]3SC[C@@H](O)[C@H](O)[C@H]3O)cc2)cc1` [Example 16, 4-((4-cyanophenyl)sulfonyl)phenyl 1,5-dithio-β-D-xylopyranoside] gave an inhibition in vivo at 3 mg/kg of 66%.
`CC(=O)O[C@@H]1[C@@H](OC(C)=O)[C@H](Sc2ccc(S(=O)(=O)c3ccc(F)cc3)cc2)SC[C@H]1OC(C)=O` [Example 13] was tested, and the inhibition in vivo at 3 mg/kg was 58%.
`CS(=O)(=O)c1ccc(S[C@@H]2SC[C@@H](O)[C@H](O)[C@H]2O)cc1` [Example 6, 4-(methylsulfonyl)phenyl 1,5-dithio-β-D-xylopyranoside] gave an inhibition in vivo at 3 mg/kg of 61%.
With `CC(=O)O[C@@H]1[C@@H](OC(C)=O)[C@H](Sc2ccc(S(=O)(=O)N(C)C)cc2)SC[C@H]1OC(C)=O` [Example 17, 4-(N,N-dimethylsulfonamidyl)phenyl 2,3,4-tri-O-acetyl-1,5-dithio-β-D-xylpyranoside] the inhibition in vivo at 3 mg/kg was 56%.
Work on `CS(=O)(=O)c1ccc(O[C@@H]2SC[C@@H](O)[C@H](O)[C@H]2O)cc1` [Example 8, 4-(methylsulfonyl)phenyl 5-thio-β-D-xylpyranoside] yielded an inhibition in vivo at 3 mg/kg of 30%.
With `CN(C)S(=O)(=O)c1ccc(S[C@@H]2SC[C@@H](O)[C@H](O)[C@H]2O)cc1` [Example 18, 4-(N,N-dimethylsulfonamidyl)phenyl 1.5-dithio-β-D-xylopyranoside] the inhibition in vivo at 3 mg/kg was 46%.
For `CN(C)S(=O)(=O)c1ccc(O[C@@H]2SC[C@@H](O)[C@H](O)[C@H]2O)cc1` [Example 20, 4-(N,N-dimethylsulfonamidyl)phenyl 5-thio-β-D-xylpyranoside], the inhibition in vivo at 3 mg/kg was 58%.
`CS(=O)(=O)c1ccccc1S[C@@H]1SC[C@@H](O)[C@H](O)[C@H]1O` [Example 4, 2-(methylsulfonyl)phenyl 1.5-dithio-β-D-xylopyranoside] showed an inhibition in vivo at 3 mg/kg of 26%.
